Changes are numbered by the printed parent chain.
Experiments:
Assay in all cases: single sensillum extracellular recording, Ir decoder neuron
Details in all cases: 1% v/v odor in water, 10 ul, 500 ms pulse; agonist
DmelIr75b^DsecS1 = target: T1, DmelIr75b^DsecS1 (Drosophila melanogaster, UniProt A0A1S6EMU4, I210K/M217L/K220Q/N259S/I277M/F289L/Q291K/T523S, form not given); format: cell-based
T1 construct: gene IR75b; UAS transgene in Ir decoder neuron; with Ionotropic receptor 8a (D. melanogaster, endogenous)
T1 sequence (A0A1S6EMU4 1-609 I210K/M217L/K220Q/N259S/I277M/F289L/Q291K/T523S): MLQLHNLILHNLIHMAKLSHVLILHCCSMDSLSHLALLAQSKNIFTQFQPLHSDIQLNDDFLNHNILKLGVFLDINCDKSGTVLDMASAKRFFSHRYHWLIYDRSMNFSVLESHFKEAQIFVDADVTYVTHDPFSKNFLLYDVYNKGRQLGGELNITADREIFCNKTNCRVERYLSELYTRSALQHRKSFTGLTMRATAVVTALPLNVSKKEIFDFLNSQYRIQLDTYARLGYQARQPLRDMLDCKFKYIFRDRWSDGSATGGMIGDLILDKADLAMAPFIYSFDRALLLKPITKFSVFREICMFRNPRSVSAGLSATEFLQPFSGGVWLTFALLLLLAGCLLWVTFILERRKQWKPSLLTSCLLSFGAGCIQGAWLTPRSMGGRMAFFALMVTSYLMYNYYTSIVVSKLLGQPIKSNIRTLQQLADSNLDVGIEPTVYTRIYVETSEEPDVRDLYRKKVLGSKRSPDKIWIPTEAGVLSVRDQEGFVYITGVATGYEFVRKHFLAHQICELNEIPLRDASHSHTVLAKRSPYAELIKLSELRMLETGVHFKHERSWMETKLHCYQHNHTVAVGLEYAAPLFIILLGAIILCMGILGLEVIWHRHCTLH
T1 sequence (Q9W365 18-936 partner): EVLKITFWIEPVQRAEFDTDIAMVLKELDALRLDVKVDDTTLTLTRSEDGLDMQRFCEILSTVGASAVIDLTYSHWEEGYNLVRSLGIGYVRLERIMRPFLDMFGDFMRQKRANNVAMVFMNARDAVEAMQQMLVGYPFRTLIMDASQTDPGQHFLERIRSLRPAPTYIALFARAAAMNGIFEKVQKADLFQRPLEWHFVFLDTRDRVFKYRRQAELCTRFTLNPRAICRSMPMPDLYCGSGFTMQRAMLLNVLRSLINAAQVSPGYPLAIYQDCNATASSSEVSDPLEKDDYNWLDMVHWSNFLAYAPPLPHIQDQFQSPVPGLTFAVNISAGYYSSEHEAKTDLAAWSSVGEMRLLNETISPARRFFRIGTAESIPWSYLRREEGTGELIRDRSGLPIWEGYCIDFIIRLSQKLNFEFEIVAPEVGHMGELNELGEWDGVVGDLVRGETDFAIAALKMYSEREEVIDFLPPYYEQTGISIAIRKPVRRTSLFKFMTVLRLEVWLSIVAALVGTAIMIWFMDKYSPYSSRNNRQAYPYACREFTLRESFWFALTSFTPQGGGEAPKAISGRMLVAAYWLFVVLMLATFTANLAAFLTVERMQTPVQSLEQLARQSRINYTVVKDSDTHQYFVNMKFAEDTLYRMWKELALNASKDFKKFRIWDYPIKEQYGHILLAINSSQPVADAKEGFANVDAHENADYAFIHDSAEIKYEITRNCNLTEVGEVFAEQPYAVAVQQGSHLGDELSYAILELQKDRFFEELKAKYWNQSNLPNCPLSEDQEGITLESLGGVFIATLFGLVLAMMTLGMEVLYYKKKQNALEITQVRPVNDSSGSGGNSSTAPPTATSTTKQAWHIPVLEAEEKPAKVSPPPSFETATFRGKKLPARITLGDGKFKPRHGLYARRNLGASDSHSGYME

DmelIr75a [1] = target: T2, DmelIr75a (Drosophila melanogaster, UniProt Q9VVL1, T289S/Q536K/F538L); format: cell-based
T2 construct: gene Ir75a; full-length cDNA, UAS transgene (attP40) expressed in D. melanogaster Ir decoder neuron (Ir84a-Gal4, Ir84a mutant) with endogenous Ir8a; predicted heterotetramer; with Ionotropic receptor 8a (D. melanogaster, endogenous)

DmelIr75a [2] = target: T3, DmelIr75a (Drosophila melanogaster, UniProt Q9VVL1, T289S/Q536K)
T3 construct: gene Ir75a
T3 sequence (Q9VVL1 1-629 T289S/Q536K): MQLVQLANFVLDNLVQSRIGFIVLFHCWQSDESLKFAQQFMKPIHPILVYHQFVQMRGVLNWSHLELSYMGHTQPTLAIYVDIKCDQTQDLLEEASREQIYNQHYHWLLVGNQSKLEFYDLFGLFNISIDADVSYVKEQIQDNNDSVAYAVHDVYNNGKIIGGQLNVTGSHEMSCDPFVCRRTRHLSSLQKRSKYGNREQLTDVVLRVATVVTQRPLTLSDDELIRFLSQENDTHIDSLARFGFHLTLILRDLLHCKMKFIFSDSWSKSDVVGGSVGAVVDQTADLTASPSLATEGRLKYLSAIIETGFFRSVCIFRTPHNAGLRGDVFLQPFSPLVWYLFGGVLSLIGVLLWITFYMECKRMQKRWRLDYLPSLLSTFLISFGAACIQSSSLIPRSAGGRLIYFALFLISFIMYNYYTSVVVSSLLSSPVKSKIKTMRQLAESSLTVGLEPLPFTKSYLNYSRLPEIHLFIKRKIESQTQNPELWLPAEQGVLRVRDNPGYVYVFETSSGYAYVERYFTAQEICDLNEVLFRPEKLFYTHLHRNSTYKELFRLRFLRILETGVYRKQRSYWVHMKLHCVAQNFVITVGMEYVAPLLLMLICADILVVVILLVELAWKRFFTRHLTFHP
T3 sequence (Q9W365 18-936 partner): T1 sequence (Q9W365 18-936 partner)

DmelIr75b = target: T4, DmelIr75b (Drosophila melanogaster, UniProt A0A1S6EMU4)
T4 construct: gene IR75b
T4 sequence (A0A1S6EMU4 1-609): T1 sequence (A0A1S6EMU4 1-609 I210K/M217L/K220Q/N259S/I277M/F289L/Q291K/T523S) with K210I, L217M, Q220K, S259N, M277I, L289F, K291Q, S523T
T4 sequence (Q9W365 18-936 partner): T1 sequence (Q9W365 18-936 partner)

For `CCCC(=O)O` [C4, butyric acid], the “solvent-corrected response (spikes/s)” value (DmelIr75b^DsecS1) was “this receptor still has robust sensitivity to C4”, the “solvent-corrected response (spikes/s)” value (DmelIr75a [1]) was “produced a receptor that faithfully recapitulated the response properties of DsecIr75a” and the “solvent-corrected response (spikes/s)” value (DmelIr75a [2]) was “broadly tuned receptor that responds maximally (albeit weakly) to C2, C3, and C4”. For the same compound, the “solvent-corrected response (spikes/s)” value (DmelIr75b) was “still has robust sensitivity to C4, like DmelIr75b but unlike DsecIr75b”.

— paper PMC8575457, “Molecular reconstruction of recurrent evolutionary switching in olfactory receptor specificity” (eLife, 2021)
